How the values were obtained:
methaemoglobin = assay: Methaemoglobin (metHb) levels by pulse oximetry in AD trial patients receiving oral LMTM; type: in vivo, human; conditions: for Methaemoglobin, mean %: Table 5A, patients with SpO2 <94% at baseline; for Methaemoglobin, mean %, post dose: 4 hours post-dose, baseline SpO2 <94%; for Methaemoglobin, mean % ± SE: Table 5B, all patients
Protocol: (§1) Methods: Eighteen AD trial participants randomised to unit 4/75/100/125 mg doses of LMTM had SPO2 levels below 94% at baseline. Patients were routinely monitored by pulse oximetry after 4 hrs, and after 2 and 6 weeks of twice daily dosing. Computational chemistry was used to understand LMT-heme binding. The study design and results from two Phase 3, double-blind, controlled, randomised, studies of LMTM as a potential treatment for AD were described elsewhere (see “Gauthier, S., et al. “Efficacy and safety of tau-aggregation inhibitor therapy in patients with mild or moderate Alzheimer's disease: a randomised, controlled, double-blind, parallel-arm, phase 3 trial.” Lancet 2016; 388:2873-2884.” and “Wilcock, G K, et al. “Potential of low dose leuco-methylthioninium bis(hydromethanesulphonate) (LMTM) monotherapy for treatment of mild Alzheimer's disease: cohort analysis as modified primary outcome in a Phase Ill clinical trial.” Journal of Alzheimer's Disease 2017; 61:435-457.). In summary, 890 mild/moderate AD patients were randomly assigned (3:3:4) to 150 mg/day, 250 mg/day or 8 mg/day (intended as a control) for 15-months (clinicaltrials.gov NCT01689246). Similarly, 800 patients with mild AD were randomly assigned to 200 mg/day or 8 mg/day LMTM for 18-months (clinicaltrials.gov NCT01689233). In both trials, MetHb and SpO2 levels were measured by pulse oximetery (Massimo Corporation rad 57) at screening, baseline (within 1 hour prior to dosing), post-dose during the 4-hour observation, and subsequent clinic visits at 2 and 6 weeks. Statistical analyses were performed using R-version 3.5.1, employing paired samples t-tests to compare mean SpO2 and metHb levels.

heme iron of haemoglobin = heme iron of haemoglobin (Homo sapiens, UniProt P68871+P69905); conditions: from crystal field theory (Jorgensen); cited from earlier work
Sequence of heme iron of haemoglobin (P69905 2-142 limits assumed): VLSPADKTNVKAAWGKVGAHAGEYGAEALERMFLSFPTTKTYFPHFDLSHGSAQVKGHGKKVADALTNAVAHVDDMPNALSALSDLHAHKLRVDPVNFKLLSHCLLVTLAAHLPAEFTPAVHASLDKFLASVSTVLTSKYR
Sequence of heme iron of haemoglobin (P68871 2-147 limits assumed): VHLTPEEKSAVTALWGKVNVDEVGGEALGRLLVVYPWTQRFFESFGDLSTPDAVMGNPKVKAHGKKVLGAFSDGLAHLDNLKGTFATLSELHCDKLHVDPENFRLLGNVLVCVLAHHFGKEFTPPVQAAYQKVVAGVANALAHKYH

[1] = tested on: patients with mild hypoxaemia; assay: Peripheral oxygen saturation (SpO2) by pulse oximetry in AD trial patients with baseline SpO2 below 94% receiving oral LMTM; type: in vivo, human; conditions: for Oxygen saturation, mean %: Baseline (1 hr) 92.167; for Difference in oxygen saturation with respect to baseline: pooled doses; for Oxygen saturation, mean %, post dose: 4 hours post-dose; for Change in mean SpO2 from baseline: four hours
Protocol: as §1

[2] = tested on: oxygen-haemoglobin dissociation curve; assay: Estimation of effect of LMT treatment on oxygen-haemoglobin dissociation curve (SpO2 to PaO2 conversion table); parameters: species or system human; conditions: patients with mild hypoxaemia treated with LMTM; SpO2 plotted at baseline-implied PaO2

Compound: CN(C)c1ccc2c(c1)Sc1cc(N(C)C)ccc1N2 [LMT, hydromethylthionine]
- Methaemoglobin, mean % (methaemoglobin; LMT dose 4 mg, 4 hr, baseline 0.709): 0.733%
- Methaemoglobin, mean % (methaemoglobin; LMT dose 4 mg, Week 2, baseline 0.709): 0.732%
- Methaemoglobin, mean % (methaemoglobin; LMT dose 4 mg, Week 6, baseline 0.709): 0.769%
- Methaemoglobin, mean % (methaemoglobin; LMT dose 150 mg, 4 hr, baseline 0.721): 0.781%
- Methaemoglobin, mean % (methaemoglobin; LMT dose 150 mg, Week 2, baseline 0.721): 0.835%
- Methaemoglobin, mean % (methaemoglobin; LMT dose 150 mg, Week 6, baseline 0.721): 0.888%
- Methaemoglobin, mean % (methaemoglobin; LMT dose 200 mg, 4 hr, baseline 0.702): 0.760%
- Methaemoglobin, mean % (methaemoglobin; LMT dose 200 mg, Week 2, baseline 0.702): 0.849%
- Methaemoglobin, mean % (methaemoglobin; LMT dose 200 mg, Week 6, baseline 0.702): 0.873%
- Methaemoglobin, mean % (methaemoglobin; LMT dose 250 mg, 4 hr, baseline 0.696): 0.758%
- Methaemoglobin, mean % (methaemoglobin; LMT dose 250 mg, Week 2, baseline 0.696): 0.845%
- Methaemoglobin, mean % (methaemoglobin; LMT dose 250 mg, Week 6, baseline 0.696): 0.858%
- Methaemoglobin, mean %, post dose (methaemoglobin; single 4 mg dose, pre-dose 0.70): 0.87%
- Methaemoglobin, mean %, post dose (methaemoglobin; single high dose (indicated as 100 mg), pre-dose 0.90): 0.65%
- Estimated field factor of the LMT-heme interaction (heme iron of haemoglobin): 1.2-1.5

Compound: CN(C)c1ccc2c(c1)Sc1cc(N(C)C)ccc1N2 [LMTM, leuco-methylthioninium bis(hydromethanesulfonate)]
- Enhancement of oxygen saturation ([1]; patients with chronic hypoxaemia, single doses 4-125 mg and 6 weeks twice daily): about 3%
- Oxygen saturation, mean % ([1]; pooled data all doses (8 mg/day and 150-250 mg/day), Week 2): 95.400%
- Oxygen saturation, mean % ([1]; pooled data all doses (8 mg/day and 150-250 mg/day), Week 6): 95.571%
- Oxygen saturation, mean % ([1]; pooled data all doses, Baseline (4 hr)): 95.333%
- Difference in oxygen saturation with respect to baseline ([1]; week 2, p=0.0034): +3.17%
- Difference in oxygen saturation with respect to baseline ([1]; week 6, p=0.0005): +3.23%
- Oxygen saturation, mean %, post dose ([1]; single 4 mg dose, patients with baseline SpO2 <94%, pre-dose 91.71): 95.43%
- Change in mean SpO2 from baseline ([1]; single 4 mg dose, p=0.0205): +3.72%
- Change in mean SpO2 from baseline ([1]; single high dose (75, 100 or 125 mg), p=0.0045): +2.82%
- Oxygen saturation, mean %, post dose ([1]; single high dose (75/100/125 mg indicated as 100 mg), baseline SpO2 <94%, pre-dose 92.45): 95.27%
- Methaemoglobin, mean % ± SE (methaemoglobin; 8 mg (per day), 4 hr, baseline 0.709 ± 0.017, p 0.09732): 0.732 ± 0.017%
- Methaemoglobin, mean % ± SE (methaemoglobin; 8 mg (per day), Week 2, baseline 0.709 ± 0.017, p 0.1326): 0.733 ± 0.018%
- Methaemoglobin, mean % ± SE (methaemoglobin; 8 mg (per day), Week 6, baseline 0.709 ± 0.017, p 0.0006916): 0.770 ± 0.019%
- Methaemoglobin, mean % ± SE (methaemoglobin; 150 mg (per day), 4 hr, baseline 0.721 ± 0.029, p 0.02212): 0.7811 ± 0.029%
- Methaemoglobin, mean % ± SE (methaemoglobin; 150 mg (per day), Week 2, baseline 0.721 ± 0.029, p <0.0001): 0.831 ± 0.032%
- Methaemoglobin, mean % ± SE (methaemoglobin; 150 mg (per day), Week 6, baseline 0.721 ± 0.029, p <0.0001): 0.889 ± 0.034%
- Methaemoglobin, mean % ± SE (methaemoglobin; 200 mg (per day), 4 hr, baseline 0.702 ± 0.025, p 0.01967): 0.760 ± 0.023%
- Methaemoglobin, mean % ± SE (methaemoglobin; 200 mg (per day), Week 2, baseline 0.702 ± 0.025, p <0.0001): 0.849 ± 0.027%
- Methaemoglobin, mean % ± SE (methaemoglobin; 200 mg (per day), Week 6, baseline 0.702 ± 0.025, p <0.0001): 0.873 ± 0.030%
- Methaemoglobin, mean % ± SE (methaemoglobin; 250 mg (per day), 4 hr, baseline 0.696 ± 0.028, p 0.005868): 0.758 ± 0.028%
- Methaemoglobin, mean % ± SE (methaemoglobin; 250 mg (per day), Week 2, baseline 0.696 ± 0.028, p <0.0001): 0.837 ± 0.034%
- Methaemoglobin, mean % ± SE (methaemoglobin; 250 mg (per day), Week 6, baseline 0.696 ± 0.028, p <0.0001): 0.851 ± 0.033%
- Difference in metHb levels between baseline and 4-hours post-dose (methaemoglobin; both treatment groups (4 mg and high single doses), patients with baseline SpO2 <94%): no consistent difference
- Effect on metHb levels over 6 weeks (methaemoglobin; higher doses (150, 200 and 250 mg/day), baseline SpO2 <94% subgroup, not statistically significant): systematically increased
- Implied effect of treatment on the oxygen-haemoglobin dissociation curve [2]: implied left-shift
